Changes are numbered by the printed parent chain.
Experiments:
Assay in all cases: surface plasmon resonance (BIAcore), protein immobilised on CM4 chip
[1] = target: T1, ATP7B N-domain (Nucleotide binding domain) (Homo sapiens, UniProt P35670, D1167A/D1171A/E1152A)
T1 construct: covalently immobilised on CM4 sensor chip
T1 sequence (P35670 1036-1196 E1152A/D1167A/D1171A): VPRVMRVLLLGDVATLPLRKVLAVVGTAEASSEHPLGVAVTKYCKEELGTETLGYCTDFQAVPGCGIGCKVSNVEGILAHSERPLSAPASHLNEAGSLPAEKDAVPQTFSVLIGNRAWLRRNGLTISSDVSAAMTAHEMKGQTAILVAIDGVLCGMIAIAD
Description: (§1) surface plasmon resonance (BIAcore), protein immobilised on CM4 chip on ATP7B N-domain (Nucleotide binding domain)

[2] = target: T2, ATP7B N-domain (Nucleotide binding domain) (Homo sapiens, UniProt P35670, N1150A); conditions: read-out: Kd (μM) / ATP
T2 construct: covalently immobilised on CM4 sensor chip
T2 sequence (P35670 1036-1196 N1150A): T1 sequence (P35670 1036-1196 E1152A/D1167A/D1171A) with N115A, A117E, A132D, A136D
Description: as §1

[3] = target: T3, ATP7B N-domain (Nucleotide binding domain) (Homo sapiens, UniProt P35670, H1069Q); conditions: read-out: Kd (μM) / ATP
T3 construct: covalently immobilised on CM4 sensor chip
T3 sequence (P35670 1036-1196 H1069Q): T1 sequence (P35670 1036-1196 E1152A/D1167A/D1171A) with H34Q, A117E, A132D, A136D
Description: as §1

[4] = target: T4, ATP7B N-domain (Nucleotide binding domain) (Homo sapiens, UniProt P35670); conditions: read-out: Kd (μM) / ATP
T4 construct: covalently immobilised on CM4 sensor chip
T4 sequence (P35670 1036-1196): T1 sequence (P35670 1036-1196 E1152A/D1167A/D1171A) with A117E, A132D, A136D
Description: as §1

[5] = target: T5, ATP7B N-domain (Nucleotide binding domain) (Homo sapiens, UniProt P35670, D1171A); conditions: read-out: Kd (μM) / ATP
T5 construct: covalently immobilised on CM4 sensor chip
T5 sequence (P35670 1036-1196 D1171A): T1 sequence (P35670 1036-1196 E1152A/D1167A/D1171A) with A117E, A132D
Description: as §1

[6] = target: T6, ATP7B N-domain (Nucleotide binding domain) (Homo sapiens, UniProt P35670, D1167A); conditions: read-out: Kd (μM) / ATP
T6 construct: covalently immobilised on CM4 sensor chip
T6 sequence (P35670 1036-1196 D1167A): T1 sequence (P35670 1036-1196 E1152A/D1167A/D1171A) with A117E, A136D
Description: as §1

[7] = target: T7, ATP7B N-domain (Nucleotide binding domain) (Homo sapiens, UniProt P35670, E1152A); conditions: read-out: Kd (μM) / ATP
T7 construct: covalently immobilised on CM4 sensor chip
T7 sequence (P35670 1036-1196 E1152A): T1 sequence (P35670 1036-1196 E1152A/D1167A/D1171A) with A132D, A136D
Description: as §1

[8] = target: T8, ATP7B N-domain (Nucleotide binding domain) (Homo sapiens, UniProt P35670, DEL1121-1137)
T8 construct: covalently immobilised on CM4 sensor chip
T8 sequence (P35670 with tags, fused parts or gaps DEL1121-1137): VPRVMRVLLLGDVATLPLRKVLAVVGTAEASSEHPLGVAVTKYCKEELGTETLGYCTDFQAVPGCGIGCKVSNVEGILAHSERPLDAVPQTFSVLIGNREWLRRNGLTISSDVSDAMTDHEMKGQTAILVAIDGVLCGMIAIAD
Description: as §1

Kd [1]: > 1000 µM
Kd [2]: 82.7 ± 4.16 µM
Kd [3]: 76.5 ± 1.72 µM
Kd [4]: 74.2 ± 2.52 µM
Kd [5]: 81.1 ± 3.16 µM
Kd [6]: 96.9 ± 3.91 µM
Kd [7]: 174 ± 3.82 µM
Kd [8]: > 1000 µM
Compound: Nc1ncnc2c1ncn2[C@@H]1O[C@H](COP(=O)(O)OP(=O)(O)OP(=O)(O)O)[C@@H](O)[C@H]1O [ATP]

From PMC3203118, “Elucidation of the ATP7B N-Domain Mg^2+-ATP Coordination Site and Its Allosteric Regulation” (PLoS ONE, 2011)
